Source: US9181305B2, “Exendin-4 peptide analogues” (SANOFI, priority 2012, dated 2015)
In brackets after ≈: the same amount, converted by molar mass. *1 amine or outer side, *2 acyl side, *3 side chain or, on linkers, in order; H or OH if unused. Where a SMILES comes first, the peptide text is derived from it. Side-chain parts run from the residue outwards. [ ]: non-standard residue; d: D form. The star is where a group is joined. γGlu = O=C(O)[C@H](CCC(=O)[*:2])N[*:1]; Palmitoyl = CCCCCCCCCCCCCCCC(=O)*; Aib = CC(C)(N)C(=O)O; GABA = NCCCC(=O)O

Experiments:
physchem = format: physicochemical
Experimental: Prior to the testing of solubility and stability of a peptide batch, its content was determined. Therefore, two parameters were investigated, its purity (HPLC-UV) and the amount of salt load of the batch (ion chromatography). Since synthesized peptides contain primarily trifluoracetate anions, only anion chromatography was performed. The content was then calculated based on the assumption that peptide-related impurities are detected at the same UV-absorption rate as the target peptide, as well as that cations are not present in the sample.
Therefore, solutions from solid samples were prepared in different buffer systems with a concentration of 1.0 mg/mL compound based on the previously determined content. HPLC-UV was performed after 2 h of gentle agitation from the supernatant, which was obtained by 20 min of centrifugation at 4000 rpm. […] This analysis also served as t0 for the stability testing.
Instrument: Agilent 1100, column: X-Bridge C18 3.5 μm 2.1×150 mm (Waters), eluent: A: H20+500 ppm TFA/B: Methanol, flow: 0.55 ml/min, gradient: 0-5 min: 10-60% B; 5-15 min: 60-99% B; detection: 214 nm.

[1] = target: T1, human GLP-1 receptor (hGLP-1 R) (Homo sapiens, UniProt P43220); test: cAMP response (HTRF) of HEK-293 cells stably expressing human GLP-1 receptor; format: cell-based; conditions: HEK-293 cells expressing human GLP-1 receptor, cAMP formation
T1 construct: expressed in transfected cells; host or cells: HEK-293
T1 sequence (P43220 24-463): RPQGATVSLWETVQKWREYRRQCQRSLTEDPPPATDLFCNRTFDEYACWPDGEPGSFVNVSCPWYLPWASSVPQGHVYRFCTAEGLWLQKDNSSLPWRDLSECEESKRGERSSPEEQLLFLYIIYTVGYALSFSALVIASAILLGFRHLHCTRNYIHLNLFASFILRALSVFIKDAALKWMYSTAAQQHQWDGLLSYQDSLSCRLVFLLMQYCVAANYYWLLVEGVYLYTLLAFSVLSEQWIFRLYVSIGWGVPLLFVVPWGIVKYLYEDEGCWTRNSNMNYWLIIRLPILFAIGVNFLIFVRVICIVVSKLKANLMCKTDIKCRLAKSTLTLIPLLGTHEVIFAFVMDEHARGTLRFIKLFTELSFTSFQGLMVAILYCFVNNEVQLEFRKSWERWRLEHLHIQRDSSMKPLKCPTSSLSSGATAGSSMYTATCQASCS
Outline: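 Detached HEK-293 cells stably expressing the receptor were suspended in HBSS with 20 mM HEPES, 0.1% BSA and 2 mM IBMX. Test compound was added for 30 min at room temperature, and cellular cAMP was quantified by HTRF.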

SMILES	solubility at 2 h (physchem; pH 4.5) [µg/mL]	solubility at 2 h (physchem; pH 7.4) [µg/mL]	EC50 [1] [pM]
CCCCCCCCCCCCCCCC(=O)N[C@@H](CCC(=O)NCCCC[C@H](NC(=O)[C@H](CO)NC(=O)[C@@H]1CCCN1C(=O)[C@@H]1CCCN1C(=O)[C@@H]1CCCN1C(=O)[C@H](C)NC(=O)CNC(=O)[C@H](CO)NC(=O)[C@H](CO)NC(=O)[C@@H]1CCCN1C(=O)CNC(=O)CNC(=O)[C@H](C)NC(=O)[C@H](CCCCN)NC(=O)[C@H](CC(C)C)NC(=O)[C@H](Cc1c[nH]c2ccccc12)NC(=O)[C@H](CCC(=O)O)NC(=O)[C@@H](NC(=O)[C@H](Cc1ccccc1)NC(=O)[C@H](CC(=O)O)NC(=O)[C@H](CCC(N)=O)NC(=O)[C@H](C)NC(=O)[C@H](CCCNC(=N)N)NC(=O)[C@H](CCCNC(=N)N)NC(=O)[C@H](CO)NC(=O)[C@H](CC(=O)O)NC(=O)[C@H](CCSC)NC(=O)[C@H](CCC(N)=O)NC(=O)[C@H](CCCCN)NC(=O)[C@H](CO)NC(=O)[C@H](CC(C)C)NC(=O)[C@H](CC(=O)O)NC(=O)[C@H](CO)NC(=O)[C@@H](NC(=O)[C@H](Cc1ccccc1)NC(=O)[C@@H](NC(=O)CNC(=O)[C@H](CCC(N)=O)NC(=O)[C@@H](CO)NC(=O)[C@@H](N)Cc1c[nH]cn1)[C@@H](C)O)[C@@H](C)O)[C@@H](C)CC)C(N)=O)C(=O)O [(60)] (H-H[dS]QGTFTSDLSKQMDSRRAQDFIEWLKAGGPSSGAPPPSK([γGlu-Palmitoyl])-NH2)	> 1000	> 1000	–
CCCCCCCCCCCCCCCC(=O)N[C@@H](CCC(=O)NCCCC[C@H](NC(=O)[C@H](CO)NC(=O)[C@@H]1CCCN1C(=O)[C@@H]1CCCN1C(=O)[C@@H]1CCCN1C(=O)[C@H](C)NC(=O)CNC(=O)[C@H](CO)NC(=O)[C@H](CO)NC(=O)[C@@H]1CCCN1C(=O)CNC(=O)CNC(=O)[C@H](C)NC(=O)[C@H](CCCCN)NC(=O)[C@H](CC(C)C)NC(=O)[C@H](Cc1c[nH]c2ccccc12)NC(=O)[C@H](CCC(=O)O)NC(=O)[C@@H](NC(=O)[C@H](Cc1ccccc1)NC(=O)[C@H](CC(=O)O)NC(=O)[C@H](CCC(N)=O)NC(=O)[C@H](C)NC(=O)[C@H](CCCNC(=N)N)NC(=O)[C@H](CCCNC(=N)N)NC(=O)[C@H](CO)NC(=O)[C@H](CCC(=O)O)NC(=O)[C@H](CCSC)NC(=O)[C@H](CCC(N)=O)NC(=O)[C@H](CCCCN)NC(=O)[C@H](CO)NC(=O)[C@H](CC(C)C)NC(=O)[C@H](CC(=O)O)NC(=O)[C@H](CO)NC(=O)[C@@H](NC(=O)[C@H](Cc1ccccc1)NC(=O)[C@@H](NC(=O)CNC(=O)[C@H](CCC(N)=O)NC(=O)[C@@H](CO)NC(=O)[C@@H](N)Cc1c[nH]cn1)[C@@H](C)O)[C@@H](C)O)[C@@H](C)CC)C(N)=O)C(=O)O [(63)] (H-H[dS]QGTFTSDLSKQMESRRAQDFIEWLKAGGPSSGAPPPSK([γGlu-Palmitoyl])-NH2)	> 1000	> 1000	–
CCCCCCCCCCCCCCCC(=O)N[C@@H](CCC(=O)NCCCC[C@H](NC(=O)[C@H](CO)NC(=O)[C@@H]1CCCN1C(=O)[C@@H]1CCCN1C(=O)[C@@H]1CCCN1C(=O)[C@H](C)NC(=O)CNC(=O)[C@H](CO)NC(=O)[C@H](CO)NC(=O)[C@@H]1CCCN1C(=O)CNC(=O)CNC(=O)[C@H](CC(N)=O)NC(=O)[C@H](CCCCN)NC(=O)[C@H](CC(C)C)NC(=O)[C@H](Cc1c[nH]c2ccccc12)NC(=O)[C@H](CCC(=O)O)NC(=O)[C@@H](NC(=O)[C@H](Cc1ccccc1)NC(=O)[C@H](CC(=O)O)NC(=O)[C@H](CCCCN)NC(=O)[C@H](C)NC(=O)[C@H](CCCNC(=N)N)NC(=O)[C@H](CCCNC(=N)N)NC(=O)[C@H](CCC(=O)O)NC(=O)[C@H](CC(=O)O)NC(=O)[C@H](CCSC)NC(=O)[C@H](CCC(N)=O)NC(=O)[C@H](CCCCN)NC(=O)[C@H](CO)NC(=O)[C@H](CC(C)C)NC(=O)[C@H](CC(=O)O)NC(=O)[C@H](CO)NC(=O)[C@@H](NC(=O)[C@H](Cc1ccccc1)NC(=O)[C@@H](NC(=O)CNC(=O)[C@H](CCC(N)=O)NC(=O)[C@@H](CO)NC(=O)[C@@H](N)Cc1c[nH]cn1)[C@@H](C)O)[C@@H](C)O)[C@@H](C)CC)C(N)=O)C(=O)O [(70)] (H-H[dS]QGTFTSDLSKQMDERRAKDFIEWLKNGGPSSGAPPPSK([γGlu-Palmitoyl])-NH2)	> 1000	> 1000	–
CCCCCCCCCCCCCCCC(=O)N[C@@H](CCC(=O)NCCCC[C@H](NC(=O)[C@H](CO)NC(=O)[C@@H]1CCCN1C(=O)[C@@H]1CCCN1C(=O)[C@@H]1CCCN1C(=O)[C@H](C)NC(=O)CNC(=O)[C@H](CO)NC(=O)[C@H](CO)NC(=O)[C@@H]1CCCN1C(=O)CNC(=O)[C@@H](C)NC(=O)[C@H](CCCNC(=N)N)NC(=O)[C@H](CCCCN)NC(=O)[C@H](CC(C)C)NC(=O)[C@H](Cc1c[nH]c2ccccc12)NC(=O)[C@H](CCC(=O)O)NC(=O)[C@@H](NC(=O)[C@H](Cc1ccccc1)NC(=O)[C@H](CC(=O)O)NC(=O)[C@H](CCC(N)=O)NC(=O)[C@H](C)NC(=O)[C@H](CCCNC(=N)N)NC(=O)[C@H](CCCNC(=N)N)NC(=O)[C@H](CO)NC(=O)[C@H](CCC(=O)O)NC(=O)[C@H](CCSC)NC(=O)[C@H](CCC(N)=O)NC(=O)[C@H](CCCCN)NC(=O)[C@H](CO)NC(=O)[C@H](CC(C)C)NC(=O)[C@H](CC(=O)O)NC(=O)[C@H](CO)NC(=O)[C@@H](NC(=O)[C@H](Cc1ccccc1)NC(=O)[C@@H](NC(=O)CNC(=O)[C@H](CCC(N)=O)NC(=O)[C@@H](CO)NC(=O)[C@@H](N)Cc1c[nH]cn1)[C@@H](C)O)[C@@H](C)O)[C@@H](C)CC)C(N)=O)C(=O)O [(76)] (H-H[dS]QGTFTSDLSKQMESRRAQDFIEWLKR[dA]GPSSGAPPPSK([γGlu-Palmitoyl])-NH2)	952 (≈ 199 µM)	> 1000	–
CCCCCCCCCCCCCCCC(=O)N[C@@H](CCC(=O)NCCCC[C@H](NC(=O)[C@H](CO)NC(=O)[C@@H]1CCCN1C(=O)[C@@H]1CCCN1C(=O)[C@@H]1CCCN1C(=O)[C@H](C)NC(=O)CNC(=O)[C@H](CO)NC(=O)[C@H](CO)NC(=O)[C@@H]1CCCN1C(=O)CNC(=O)CNC(=O)[C@H](C)NC(=O)[C@H](CCCCN)NC(=O)[C@H](CC(C)C)NC(=O)[C@H](Cc1c[nH]c2ccccc12)NC(=O)[C@H](CCC(=O)O)NC(=O)[C@@H](NC(=O)[C@H](Cc1ccccc1)NC(=O)[C@H](CC(C)C)NC(=O)[C@H](CCC(N)=O)NC(=O)[C@H](C)NC(=O)[C@H](C)NC(=O)C(C)(C)NC(=O)[C@H](CO)NC(=O)[C@H](CCC(=O)O)NC(=O)[C@H](CCSC)NC(=O)[C@H](CCC(N)=O)NC(=O)[C@H](CCCCN)NC(=O)[C@H](CO)NC(=O)[C@H](CC(C)C)NC(=O)[C@H](CC(=O)O)NC(=O)[C@H](CO)NC(=O)[C@@H](NC(=O)[C@H](Cc1ccccc1)NC(=O)[C@@H](NC(=O)CNC(=O)[C@H](CCC(N)=O)NC(=O)[C@@H](CO)NC(=O)[C@@H](N)Cc1c[nH]cn1)[C@@H](C)O)[C@@H](C)O)[C@@H](C)CC)C(N)=O)C(=O)O [(112)] (H-H[dS]QGTFTSDLSKQMES[Aib]AAQLFIEWLKAGGPSSGAPPPSK([γGlu-Palmitoyl])-NH2)	–	–	9.7
CCCCCCCCCCCCCCCC(=O)N[C@@H](CCC(=O)NCCCC[C@H](NC(=O)[C@H](CO)NC(=O)[C@@H]1CCCN1C(=O)[C@@H]1CCCN1C(=O)[C@@H]1CCCN1C(=O)[C@H](C)NC(=O)CNC(=O)[C@H](CO)NC(=O)[C@H](CO)NC(=O)[C@@H]1CCCN1C(=O)CNC(=O)CNC(=O)[C@H](C)NC(=O)[C@H](CCCCN)NC(=O)[C@H](CC(C)C)NC(=O)[C@H](Cc1c[nH]c2ccccc12)NC(=O)[C@H](CCC(=O)O)NC(=O)[C@@H](NC(=O)[C@H](Cc1ccccc1)NC(=O)[C@H](CC(C)C)NC(=O)[C@H](CCC(N)=O)NC(=O)[C@H](C)NC(=O)[C@H](C)NC(=O)[C@H](CCC(=O)O)NC(=O)[C@H](CO)NC(=O)[C@H](CCC(=O)O)NC(=O)[C@H](CCSC)NC(=O)[C@H](CCC(N)=O)NC(=O)[C@H](CCCCN)NC(=O)[C@H](CO)NC(=O)[C@H](CC(C)C)NC(=O)[C@H](CC(=O)O)NC(=O)[C@H](CO)NC(=O)[C@@H](NC(=O)[C@H](Cc1ccccc1)NC(=O)[C@@H](NC(=O)CNC(=O)[C@H](CCC(N)=O)NC(=O)[C@@H](CO)NC(=O)[C@@H](N)Cc1c[nH]cn1)[C@@H](C)O)[C@@H](C)O)[C@@H](C)CC)C(N)=O)C(=O)O [(114)] (H-H[dS]QGTFTSDLSKQMESEAAQLFIEWLKAGGPSSGAPPPSK([γGlu-Palmitoyl])-NH2)	–	–	3.1
CCCCCCCCCCCCCCCC(=O)NCCCC(=O)NCCCC[C@H](NC(=O)[C@H](CO)NC(=O)[C@@H]1CCCN1C(=O)[C@@H]1CCCN1C(=O)[C@@H]1CCCN1C(=O)[C@H](C)NC(=O)CNC(=O)[C@H](CO)NC(=O)[C@H](CO)NC(=O)[C@@H]1CCCN1C(=O)CNC(=O)CNC(=O)[C@H](CO)NC(=O)[C@H](CCCCN)NC(=O)[C@H](CC(C)C)NC(=O)[C@H](Cc1c[nH]c2ccccc12)NC(=O)[C@H](CCC(=O)O)NC(=O)[C@@H](NC(=O)[C@H](Cc1ccccc1)NC(=O)[C@H](CC(=O)O)NC(=O)[C@H](CCC(N)=O)NC(=O)[C@H](C)NC(=O)[C@H](CCCNC(=N)N)NC(=O)[C@H](CCCNC(=N)N)NC(=O)[C@H](CO)NC(=O)[C@H](CCC(=O)O)NC(=O)[C@H](CCSC)NC(=O)[C@H](CCC(N)=O)NC(=O)[C@H](CCCCN)NC(=O)[C@H](CO)NC(=O)[C@H](CC(C)C)NC(=O)[C@H](CC(=O)O)NC(=O)[C@H](CO)NC(=O)[C@@H](NC(=O)[C@H](Cc1ccccc1)NC(=O)[C@@H](NC(=O)CNC(=O)[C@H](CCC(N)=O)NC(=O)[C@@H](CO)NC(=O)[C@@H](N)Cc1c[nH]cn1)[C@@H](C)O)[C@@H](C)O)[C@@H](C)CC)C(N)=O [(125)] (H-H[dS]QGTFTSDLSKQMESRRAQDFIEWLKSGGPSSGAPPPSK([GABA-Palmitoyl])-NH2)	–	–	10.8
